Assay results: US20260217697A1, “COMPOUNDS COMPRISING HETEROARYL RINGS AND COMPOSITIONS AND METHODS THEREOF” (lonGen Therapeutics Co., Ltd., priority 2022, published 2026)

Target: T1, hTRPV3 (Homo sapiens, UniProt Q8NET8)
T1 construct: The commercially available plasmid with the full-length cDNA of hTRPV3 (791 aa) (NM_001258205.2); host or cells: HEK293T
T1 sequence (Q8NET8 1-791 isoform Q8NET8-2): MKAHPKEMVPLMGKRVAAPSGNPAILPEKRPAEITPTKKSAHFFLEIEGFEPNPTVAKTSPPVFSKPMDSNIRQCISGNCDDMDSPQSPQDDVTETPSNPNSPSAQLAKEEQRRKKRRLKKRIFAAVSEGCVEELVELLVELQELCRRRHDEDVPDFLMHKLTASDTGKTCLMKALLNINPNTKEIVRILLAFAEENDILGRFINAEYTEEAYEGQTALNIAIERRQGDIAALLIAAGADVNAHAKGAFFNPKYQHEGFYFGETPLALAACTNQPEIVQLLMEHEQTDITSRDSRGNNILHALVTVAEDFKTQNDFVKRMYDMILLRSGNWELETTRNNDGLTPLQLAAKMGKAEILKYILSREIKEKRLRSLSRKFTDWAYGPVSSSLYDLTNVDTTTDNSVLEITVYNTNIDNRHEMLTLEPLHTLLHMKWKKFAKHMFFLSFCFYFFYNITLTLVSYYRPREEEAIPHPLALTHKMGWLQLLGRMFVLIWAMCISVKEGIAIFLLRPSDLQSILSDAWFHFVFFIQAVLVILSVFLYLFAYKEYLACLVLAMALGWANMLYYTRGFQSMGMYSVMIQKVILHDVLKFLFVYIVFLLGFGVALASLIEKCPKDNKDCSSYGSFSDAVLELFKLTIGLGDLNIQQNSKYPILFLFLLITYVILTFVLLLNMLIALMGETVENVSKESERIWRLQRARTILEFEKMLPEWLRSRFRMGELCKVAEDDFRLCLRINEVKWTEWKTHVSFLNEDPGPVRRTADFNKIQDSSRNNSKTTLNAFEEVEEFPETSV
Assay: Whole-cell patch-clamp recording of hTRPV3 current in transfected HEK293T cells (2-APB induced)
Type: cell-based
Settings: current induced by 300 μM 2-APB, compounds tested up to 10 μM, room temperature
Outline: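 HEK293T cells transiently expressing full-length hTRPV3, recorded by whole-cell patch clamp 18 h post-transfection at room temperature, with 130 mM NaCl/0.3 mM EDTA/3 mM HEPES pH 7.4 on both sides. Holding potential 0 mV; 400-ms steps to +80 and −80 mV every 2 s. Block of 2-APB-evoked current, tested up to 10 μM, fitted to Hill equation for IC50.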

IC50	SMILES
100 to 1000 nM	COc1ncnc(OC)c1C(=O)Nc1nc2c(s1)C1(CCC(C(=O)N(C)C(C)C)CC1)Oc1cc(C(F)(F)F)ccc1-2 (centres unmarked) [compound 127, 2-(4,6-dimethoxypyrimidine-5-carboxamido)-N-isopropyl-N-methyl-7-(trifluoromethyl)spiro[chromeno[4,3-d]thiazole-4,1′-cyclohexane]-4′-carboxamide]
≥ 10000 nM	CCC1(CC)Oc2cc(C(F)(F)F)ccc2-c2nc(NC(=O)c3c(OC)ncnc3OCOC)sc21 [compound 122, N-(4,4-diethyl-7-(trifluoromethyl)-4H-chromeno[4,3-d]thiazol-2-yl)-4-methoxy-6-(methoxymethoxy)pyrimidine-5-carboxamide]
< 100 nM	COc1ncnc(OC)c1C(=O)Nc1nc2c(s1)C1(CN(C(C)C)C1)Oc1cc(Br)ccc1-2 [compound 146, N-(7′-bromo-1-isopropylspiro[azetidine-3,4′-chromeno[4,3-d]thiazol]-2′-yl)-4,6-dimethoxypyrimidine-5-carboxamide]
1000 to 10000 nM	COc1ncnc(OCCN(C)C)c1C(=O)Nc1nc2c(s1)C1(COC1)Oc1cc(C(F)(F)F)ccc1-2 [compound 151, 4-(2-(dimethylamino)ethoxy)-6-methoxy-N-(7-(trifluoromethyl)spiro[chromeno[4,3-d]thiazole-4,3′-oxetan]-2-yl)pyrimidine-5-carboxamide]
1000 to 10000 nM	COc1ncnc(OC)c1C(=O)Nc1nc2c(s1)C1(COC1)Oc1cc(C(C)(C)C#N)ccc1-2 [compound 140, N-(7-(2-cyanopropan-2-yl)spiro[chromeno[4,3-d]thiazole-4,3′-oxetan]-2-yl)-4,6-dimethoxypyrimidine-5-carboxamide]
1000 to 10000 nM	COc1ncnc(OC)c1C(=O)Nc1nc2c(s1)C1(CCC(C(=O)N(C)C)CC1)Oc1cc(C(F)(F)F)ccc1-2 (centres unmarked) [compound 116, 2-(4,6-dimethoxypyrimidine-5-carboxamido)-N,N-dimethyl-7-(trifluoromethyl)spiro[chromeno[4,3-d]thiazole-4,1′-cyclohexane]-4′-carboxamide]
< 100 nM	COc1ncnc(OC)c1C(=O)Nc1nc2c(s1)C1(CN(C3CCC3)C1)Oc1cc(C(F)(F)F)ccc1-2 [compound 159, N-(1-cyclobutyl-7′-(trifluoromethyl)spiro[azetidine-3,4′-chromeno[4,3-d]thiazol]-2′-yl)-4,6-dimethoxypyrimidine-5-carboxamide]
1000 to 10000 nM	CCC1(CC)Oc2cc(C(F)(F)F)ccc2-c2nc(NC(=O)c3c(NC)ncnc3OC)sc21 [compound 120, N-(4,4-diethyl-7-(trifluoromethyl)-4H-chromeno[4,3-d]thiazol-2-yl)-4-methoxy-6-(methylamino)pyrimidine-5-carboxamide]
< 100 nM	COc1ncnc(OC)c1C(=O)Nc1nc2c(s1)C1(CCC(C(=O)OC(C)C)CC1)Oc1cc(C(F)(F)F)ccc1-2 (centres unmarked) [compound 123, isopropyl 2-(4,6-dimethoxypyrimidine-5-carboxamido)-7-(trifluoromethyl)spiro[chromeno[4,3-d]thiazole-4,1′-cyclohexane]-4′-carboxylate]

Continued, compound first:

SMILES	IC50
COc1ncnc(OC)c1C(=O)Nc1nc2c(s1)C1(CCC(C)CC1)Oc1cc(C(F)(F)F)ccc1-2 (centres unmarked) [compound 33, 4,6-dimethoxy-N-(4′-methyl-7-(trifluoromethyl)spiro[chromeno[4,3-d]thiazole-4,1′-cyclohexan]-2-yl)pyrimidine-5-carboxamide]	100 to 1000 nM
COc1ncnc(OC)c1C(=O)Nc1nc2c(s1)C(C)(C)Oc1cc(C(F)(F)F)ccc1-2 [compound 8, N-(4,4-dimethyl-7-(trifluoromethyl)-4H-chromeno[4,3-d]thiazol-2-yl)-4,6-dimethoxypyrimidine-5-carboxamide]	100 to 1000 nM
COc1ncnc(OC)c1C(=O)Nc1nc2c(s1)COc1cc(OC(=O)C(C)(C)C)ccc1-2 [compound 14, 2-(4,6-dimethoxypyrimidine-5-carboxamido)-4H-chromeno[4,3-d]thiazol-7-yl pivalate]	1000 to 10000 nM
COc1ncnc(OC)c1C(=O)Nc1nc2c(s1)C1(CCCC(NC(=O)OCc3ccccc3)C1)Oc1cc(C(F)(F)F)ccc1-2 (centres unmarked) [compound 39, benzyl(2-(4,6-dimethoxypyrimidine-5-carboxamido)-7-(trifluoromethyl)spiro[chromeno[4,3-d]thiazole-4,1′-cyclohexan]-3′-yl)carbamate]	100 to 1000 nM
COc1ncnc(OC)c1C(=O)Nc1nc2c(s1)COc1cc(F)ccc1-2 [compound 10, N-(7-fluoro-4H-chromeno[4,3-d]thiazol-2-yl)-4,6-dimethoxypyrimidine-5-carboxamide]	≥ 10000 nM
COc1ncnc(OC)c1C(=O)Nc1nc2c(s1)COc1cccc(C(F)(F)F)c1-2 [compound 99, 4,6-dimethoxy-N-(9-(trifluoromethyl)-4H-chromeno[4,3-d]thiazol-2-yl)pyrimidine-5-carboxamide]	≥ 10000 nM
CCOC(=O)C1CCC2(CC1)Oc1cc(C(F)(F)F)ccc1-c1nc(NC(=O)c3c(OC)ncnc3OC)sc12 (centres unmarked) [compound 32, ethyl 2-(4,6-dimethoxypyrimidine-5-carboxamido)-7-(trifluoromethyl)spiro[chromeno[4,3-d]thiazole-4,1′-cyclohexane]-4′-carboxylate]	< 100 nM
CCC(C)(C)C(=O)N1CC2(C1)Oc1cc(C(F)(F)F)ccc1-c1nc(NC(=O)c3c(OC)ncnc3OC)sc12 [compound 74, N-(1-(2,2-dimethylbutanoyl)-7′-(trifluoromethyl)spiro[azetidine-3,4′-chromeno[4,3-d]thiazol]-2′-yl)-4,6-dimethoxypyrimidine-5-carboxamide]	100 to 1000 nM
COc1ncnc(OC)c1C(=O)Nc1nc2c(s1)COc1cc(C(F)(F)F)ccc1-2 [compound 1, 4,6-dimethoxy-N-(7-(trifluoromethyl)-4H-chromeno[4,3-d]thiazol-2-yl)pyrimidine-5-carboxamide]	100 to 1000 nM
CCC1(CC)Oc2cc(C(F)(F)F)ccc2-c2nc(NC(=O)c3c(OCC(F)(F)F)ncnc3OCC(F)(F)F)sc21 [compound 48, N-(4,4-diethyl-7-(trifluoromethyl)-4H-chromeno[4,3-d]thiazol-2-yl)-4,6-bis(2,2,2-trifluoroethoxy)pyrimidine-5-carboxamide]	≥ 10000 nM
CCOc1ncnc(OCC)c1C(=O)Nc1nc2c(s1)C(CC)(CC)Oc1cc(C(F)(F)F)ccc1-2 [compound 47, N-(4,4-diethyl-7-(trifluoromethyl)-4H-chromeno[4,3-d]thiazol-2-yl)-4,6-diethoxypyrimidine-5-carboxamide]	100 to 1000 nM
CCC1(CC)Oc2cc(C(F)(F)F)ccc2-c2nc(NC(=O)c3c(OC)ncnc3OC)sc21 [compound 24, N-(4,4-diethyl-7-(trifluoromethyl)-4H-chromeno[4,3-d]thiazol-2-yl)-4,6-dimethoxypyrimidine-5-carboxamide]	< 100 nM
COc1ncnc(OC)c1C(=O)Nc1nc2c(s1)C(CO)(CO)Oc1cc(C(F)(F)F)ccc1-2 [compound 113, N-(4,4-bis(hydroxymethyl)-7-(trifluoromethyl)-4H-chromeno[4,3-d]thiazol-2-yl)-4,6-dimethoxypyrimidine-5-carboxamide]	1000 to 10000 nM
COc1ncnc(OC)c1C(=O)Nc1nc2c(s1)C1(COC(C)(C)OC1)Oc1cc(C(F)(F)F)ccc1-2 [compound 108, N-(2′,2′-dimethyl-7-(trifluoromethyl)spiro[chromeno[4,3-d]thiazole-4,5′-[1,3]dioxan]-2-yl)-4,6-dimethoxypyrimidine-5-carboxamide]	100 to 1000 nM
